The assay deals with recombinant human integrin αvβ6 (Homo sapiens (Human), UniProt P06756+P18564). Put plainly: Solid Phase Integrin αvβ6 Binding Assay (Examples B1, B2). As to conditions: TGFβ1 LAP ligand, values given in four ranges, read-out: αvβ6 Inhibition IC50 (nM)-range. The procedure: (§1) Microplates were coated with recombinant human integrin αvβ6 (2 μg/mL) in PBS (100 μL/well 25° C., overnight). The coating solution was removed, washed with wash buffer (0.05% Tween 20; 0.5 mM MnCl2; in 1×TBS). The plate was blocked with 200 μL/well of Block Buffer (1% BSA; 5% sucrose; 0.5 mM MnCl2; in 1×TBS) at 37° C. for 2 h. Dilutions of testing compounds and recombinant TGFβ1 LAP (0.67 μg/mL) in binding buffer (0.05% BSA; 2.5% sucrose; 0.5 mM MnCl2; in 1×TBS) were added. The plate was incubated for 2 hours at 25° C., washed, and incubated for 1 hour with Biotin-Anti-hLAP. Bound antibody was detected by peroxidase-conjugated streptavidin. The IC50 values for testing compounds were calculated by four-parameter logistic regression.
Chain of recombinant human integrin αvβ6 (P06756 31-992): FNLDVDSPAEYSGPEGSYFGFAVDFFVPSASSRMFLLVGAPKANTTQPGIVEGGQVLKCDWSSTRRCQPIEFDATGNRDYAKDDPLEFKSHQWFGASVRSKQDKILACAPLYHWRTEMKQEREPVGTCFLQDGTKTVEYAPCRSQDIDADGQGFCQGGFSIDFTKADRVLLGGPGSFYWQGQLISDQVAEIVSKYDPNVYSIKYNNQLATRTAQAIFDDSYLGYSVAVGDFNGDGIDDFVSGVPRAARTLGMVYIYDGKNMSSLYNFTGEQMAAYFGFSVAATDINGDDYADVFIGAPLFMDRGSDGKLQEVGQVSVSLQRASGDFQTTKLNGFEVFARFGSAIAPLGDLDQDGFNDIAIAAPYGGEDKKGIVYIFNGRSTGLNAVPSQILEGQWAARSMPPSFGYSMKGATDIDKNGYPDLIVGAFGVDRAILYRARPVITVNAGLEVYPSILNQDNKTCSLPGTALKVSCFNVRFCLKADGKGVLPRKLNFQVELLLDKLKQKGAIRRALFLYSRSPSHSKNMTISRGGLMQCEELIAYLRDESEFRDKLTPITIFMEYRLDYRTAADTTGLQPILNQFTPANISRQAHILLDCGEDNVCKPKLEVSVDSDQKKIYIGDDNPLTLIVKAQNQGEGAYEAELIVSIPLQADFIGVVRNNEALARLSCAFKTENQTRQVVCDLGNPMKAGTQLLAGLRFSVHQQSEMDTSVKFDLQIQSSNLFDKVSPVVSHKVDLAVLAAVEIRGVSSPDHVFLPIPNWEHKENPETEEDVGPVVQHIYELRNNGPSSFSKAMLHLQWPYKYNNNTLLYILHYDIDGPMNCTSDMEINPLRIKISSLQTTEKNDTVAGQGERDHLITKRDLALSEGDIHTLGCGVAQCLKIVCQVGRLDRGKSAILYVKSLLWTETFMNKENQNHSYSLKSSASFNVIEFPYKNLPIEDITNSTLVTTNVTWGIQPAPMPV
Chain of recombinant human integrin αvβ6 (P18564 22-707): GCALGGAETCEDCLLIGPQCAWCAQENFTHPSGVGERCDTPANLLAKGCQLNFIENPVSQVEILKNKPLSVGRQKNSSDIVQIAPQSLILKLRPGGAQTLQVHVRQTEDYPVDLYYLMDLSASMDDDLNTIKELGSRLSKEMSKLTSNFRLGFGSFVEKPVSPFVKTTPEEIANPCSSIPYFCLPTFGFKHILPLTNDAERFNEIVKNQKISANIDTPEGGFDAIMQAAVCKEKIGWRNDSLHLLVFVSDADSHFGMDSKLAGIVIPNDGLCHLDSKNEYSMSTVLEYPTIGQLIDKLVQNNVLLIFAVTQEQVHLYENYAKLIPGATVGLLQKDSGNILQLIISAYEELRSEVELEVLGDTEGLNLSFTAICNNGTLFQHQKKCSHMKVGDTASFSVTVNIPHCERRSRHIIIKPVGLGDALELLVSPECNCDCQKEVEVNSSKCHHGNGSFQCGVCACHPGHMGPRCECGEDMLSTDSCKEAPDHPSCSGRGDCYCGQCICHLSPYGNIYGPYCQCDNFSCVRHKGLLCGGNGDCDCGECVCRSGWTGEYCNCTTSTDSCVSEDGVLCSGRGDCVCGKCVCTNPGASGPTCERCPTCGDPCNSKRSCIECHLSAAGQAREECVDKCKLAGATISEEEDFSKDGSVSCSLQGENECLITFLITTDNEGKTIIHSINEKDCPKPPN
The compounds tested were compound samples prepared according to procedures described in the Synthetic Examples section, with the stereochemical purity as indicated in the Examples.
as §1, with “A third series of exemplary compounds was selected for testing in the solid phase integrin αvβ6 binding assay. The compounds tested were compound samples prepared according to procedures described in the Synthetic Examples section, with the stereochemical purity as indicated in the Examples. As in Example B1, microplates were coated” for “Microplates were coated”, “calculated by a four-parameter logistic” for “calculated by four-parameter logistic”

As for `Cc1ncccc1OCCN(CCCCc1ccc2c(n1)NCCC2)CC[C@H](Nc1ncnc2cccnc12)C(=O)O` [Compound 54, (S)-4-((2-((2-methylpyridin-3-yl)oxy)ethyl) (4-(5,6,7,8-tetrahydro-1,8-naphthyridin-2-yl)butyl)amino)-2-(pyrido[3,2-d]pyrimidin-4-ylamino) butanoic acid], the IC50 is < 50 nM.

For the compound `CCOCCN(CCCCc1ccc2c(n1)NCCC2)CC[C@H](Nc1ncnc2ccccc12)C(=O)O` [Compound 55, (S)-4-((2-ethoxyethyl) (4-(5,6,7,8-tetrahydro-1,8-naphthyridin-2-yl)butyl)amino)-2-(quinazolin-4-ylamino) butanoic acid], the IC50 was < 50 nM. The value for `Cc1ccc(OCCN(CCCCc2ccc3c(n2)NCCC3)CC[C@H](Nc2nc(C)nc3cc(F)ccc23)C(=O)O)cn1` [Compound 56, (S)-2-((7-fluoro-2-methylquinazolin-4-yl)amino)-4-((2-((6-methylpyridin-3-yl)oxy)ethyl) (4-(5,6,7,8-tetrahydro-1,8-naphthyridin-2-yl)butyl)amino) butanoic acid] was < 50 nM; that for `Cc1ccc(OCCN(CCCCc2ccc3c(n2)NCCC3)CC[C@H](Nc2ncnc3cccnc23)C(=O)O)cn1` [Compound 57, (S)-4-((2-((6-methylpyridin-3-yl)oxy)ethyl) (4-(5,6,7,8-tetrahydro-1,8-naphthyridin-2-yl)butyl)amino)-2-(pyrido[3,2-d]pyrimidin-4-ylamino) butanoic acid] was < 50 nM; that for `O=C(O)[C@H](CCN(CCCCc1ccc2c(n1)NCCC2)CCOc1cncc(F)c1)Nc1ncnc2ccccc12` [Compound 58, (S)-4-((2-((5-fluoropyridin-3-yl)oxy)ethyl) (4-(5,6,7,8-tetrahydro-1,8-naphthyridin-2-yl)butyl)amino)-2-(quinazolin-4-ylamino) butanoic acid] was < 50 nM. As for `Cc1ccc(OCCN(CCCCc2ccc3c(n2)NCCC3)CC[C@H](Nc2ncnc3ccccc23)C(=O)O)cn1` [Compound 59, (S)-4-((2-((6-methylpyridin-3-yl)oxy)ethyl) (4-(5,6,7,8-tetrahydro-1,8-naphthyridin-2-yl)butyl)amino)-2-(quinazolin-4-ylamino) butanoic acid], the figure is < 50 nM; as for `O=C(O)[C@H](CCN(CCCCc1ccc2c(n1)NCCC2)CCOc1cncc(F)c1)Nc1ncnc2cccnc12` [Compound 60, (S)-4-((2-((5-fluoropyridin-3-yl)oxy)ethyl) (4-(5,6,7,8-tetrahydro-1,8-naphthyridin-2-yl)butyl)amino)-2-(pyrido[3,2-d]pyrimidin-4-ylamino) butanoic acid], < 50 nM; as for `Cc1nc(N[C@@H](CCN(CCCCc2ccc3c(n2)NCCC3)CCOc2cncc(F)c2)C(=O)O)c2ccc(F)cc2n1` [Compound 61, (S)-2-((7-fluoro-2-methylquinazolin-4-yl)amino)-4-((2-((5-fluoropyridin-3-yl)oxy)ethyl) (4-(5,6,7,8-tetrahydro-1,8-naphthyridin-2-yl)butyl)amino) butanoic acid], < 50 nM. As for `CO[C@H](C)CN(CCCCc1ccc2c(n1)NCCC2)CC[C@H](Nc1ncnc2ccccc12)C(=O)O` [Compound 62, (S)-4-(((R)-2-methoxypropyl) (4-(5,6,7,8-tetrahydro-1,8-naphthyridin-2-yl)butyl)amino)-2-(quinazolin-4-ylamino) butanoic acid], the IC50 was < 50 nM. As for `CC(=O)NCCN(CCCCc1ccc2c(n1)NCCC2)CC[C@H](Nc1ncnc2ccccc12)C(=O)O` [Compound 63, (S)-4-((2-acetamidoethyl) (4-(5,6,7,8-tetrahydro-1,8-naphthyridin-2-yl)butyl)amino)-2-(quinazolin-4-ylamino) butanoic acid], the figure is < 50 nM. On to `CN(C)C(=O)CN(CCCCc1ccc2c(n1)NCCC2)CC[C@H](Nc1ncnc2ccccc12)C(=O)O` [Compound 64, (S)-4-((2-(dimethylamino)-2-oxoethyl) (4-(5,6,7,8-tetrahydro-1,8-naphthyridin-2-yl)butyl)amino)-2-(quinazolin-4-ylamino) butanoic acid], for which the IC50 was < 50 nM.

Take `CO[C@H](C)CN(CCCCc1ccc2c(n1)NCCC2)CC[C@H](Nc1nc(C)nc2cc(F)ccc12)C(=O)O` [Compound 65, (S)-2-((7-fluoro-2-methylquinazolin-4-yl)amino)-4-(((R)-2-methoxypropyl) (4-(5,6,7,8-tetrahydro-1,8-naphthyridin-2-yl)butyl)amino) butanoic acid]: the IC50 was < 50 nM. The value for `CO[C@H](C)CN(CCCCc1ccc2c(n1)NCCC2)CC[C@H](Nc1nc(C)nc2ccccc12)C(=O)O` [Compound 66, (S)-4-(((R)-2-methoxypropyl) (4-(5,6,7,8-tetrahydro-1,8-naphthyridin-2-yl)butyl)amino)-2-((2-methylquinazolin-4-yl)amino) butanoic acid] was < 50 nM; that for `COCCN(CCCCc1ccc2c(n1)NCCC2)CC[C@H](Nc1nccnc1C#N)C(=O)O` [Compound 67, (S)-2-((3-cyanopyrazin-2-yl)amino)-4-((2-methoxyethyl) (4-(5,6,7,8-tetrahydro-1,8-naphthyridin-2-yl)butyl)amino) butanoic acid] was < 50 nM; that for `CO[C@H](C)CN(CCCCc1ccc2c(n1)NCCC2)CC[C@H](Nc1ncc(C#N)cn1)C(=O)O` [Compound 68, (S)-2-((5-cyanopyrimidin-2-yl)amino)-4-(((R)-2-methoxypropyl) (4-(5,6,7,8-tetrahydro-1,8-naphthyridin-2-yl)butyl)amino) butanoic acid] was < 50 nM. As to `CO[C@H](C)CN(CCCCc1ccc2c(n1)NCCC2)CC[C@H](Nc1ncc(C(F)(F)F)cn1)C(=O)O` [Compound 69, (S)-4-(((R)-2-methoxypropyl) (4-(5,6,7,8-tetrahydro-1,8-naphthyridin-2-yl)butyl)amino)-2-((5-(trifluoromethyl)pyrimidin-2-yl)amino) butanoic acid], the IC50 was < 50 nM. As for `CO[C@H](C)CN(CCCCc1ccc2c(n1)NCCC2)CC[C@H](Nc1ncc(Br)cn1)C(=O)O` [Compound 70, (S)-2-((5-bromopyrimidin-2-yl)amino)-4-(((R)-2-methoxypropyl) (4-(5,6,7,8-tetrahydro-1,8-naphthyridin-2-yl)butyl)amino) butanoic acid], the 50% inhibitory concentration (IC50) is < 50 nM.

Turning to `CO[C@H](C)CN(CCCCc1ccc2c(n1)NCCC2)CC[C@H](Nc1ncnc2[nH]ncc12)C(=O)O` [Compound 71, (S)-2-((1H-pyrazolo[3,4-d]pyrimidin-4-yl)amino)-4-(((R)-2-methoxypropyl) (4-(5,6,7,8-tetrahydro-1,8-naphthyridin-2-yl)butyl)amino) butanoic acid], the IC50 was < 50 nM.

As for `CO[C@H](C)CN(CCCCc1ccc2c(n1)NCCC2)CC[C@H](Nc1ccnc(C(F)(F)F)n1)C(=O)O` [Compound 72, (S)-4-(((R)-2-methoxypropyl) (4-(5,6,7,8-tetrahydro-1,8-naphthyridin-2-yl)butyl)amino)-2-((2-(trifluoromethyl)pyrimidin-4-yl)amino) butanoic acid], the IC50 was < 50 nM.

In the case of `CO[C@H](C)CN(CCCCc1ccc2c(n1)NCCC2)CC[C@H](Nc1ccnc(-c2ccccc2)n1)C(=O)O` [Compound 73, (S)-4-(((R)-2-methoxypropyl) (4-(5,6,7,8-tetrahydro-1,8-naphthyridin-2-yl)butyl)amino)-2-((2-phenylpyrimidin-4-yl)amino) butanoic acid], the IC50 is < 50 nM. Regarding `CO[C@H](C)CN(CCCCc1ccc2c(n1)NCCC2)CC[C@H](Nc1ncnc2c1cnn2C)C(=O)O` [Compound 74, (S)-4-(((R)-2-methoxypropyl) (4-(5,6,7,8-tetrahydro-1,8-naphthyridin-2-yl)butyl)amino)-2-((1-methyl-1H-pyrazolo[3,4-d]pyrimidin-4-yl)amino) butanoic acid], the concentration for half-maximal inhibition (IC50) was < 50 nM. Consider `O=C(O)[C@H](CCN(CCO)CCCCc1ccc2c(n1)NCCC2)Nc1ncnc2ccccc12` [Compound 75, (S)-4-((2-hydroxyethyl) (4-(5,6,7,8-tetrahydro-1,8-naphthyridin-2-yl)butyl)amino)-2-(quinazolin-4-ylamino) butanoic acid], for which the IC50 is < 50 nM.

For the compound `CO[C@H](C)CN(CCCCc1ccc2c(n1)NCCC2)CC[C@H](Nc1nccnc1C#N)C(=O)O` [Compound 76, (S)-2-((3-cyanopyrazin-2-yl)amino)-4-(((R)-2-methoxypropyl) (4-(5,6,7,8-tetrahydro-1,8-naphthyridin-2-yl)butyl)amino) butanoic acid], the IC50 was < 50 nM.

The values above are taken from patent US11419869B2, “Dosage forms and regimens for amino acid compounds” (Pliant Therapeutics, Inc., priority 2019, dated 2022).
